In ChEMBL document CHEMBL2146358, “Discovery of amide based fibrates as possible antidyslipidemic and antioxidant agents” (2012):

Experiments:
Format in all cases: functional
[1] = Antioxidant activity assessed as inhibition of hydroxyl radical generation at 200 ug/ml by spectrophotometry
Rattus norvegicus [2] = test: Antidyslipidemic activity in Triton fed hyperlipidemic Charles Foster rat assessed as increase in post heparin lipoprotein lipase activity by measuring free fatty acids formation rate per ml of plasma at 100 mg/kg, po
Rattus norvegicus [3] = test: Antidyslipidemic activity in Triton fed hyperlipidemic Charles Foster rat assessed as reduction in plasma triglyceride level at 100 mg/kg, po; parameters: scale not given: the % may be the effect or the level left
Rattus norvegicus [4] = test: Antidyslipidemic activity in Triton fed hyperlipidemic Charles Foster rat assessed as reduction in plasma phospholipids at 100 mg/kg, po; parameters: scale not given: the % may be the effect or the level left
Rattus norvegicus [5] = test: Antidyslipidemic activity in Triton fed hyperlipidemic Charles Foster rat assessed as reduction in plasma total cholesterol at 100 mg/kg, po; parameters: scale not given: the % may be the effect or the level left
[6] = Antioxidant activity in microsomes assessed as inhibition of lipid peroxidation by measuring MDA level at 200 ug/ml by spectrophotometry based TBARS method
[7] = Antioxidant activity assessed as inhibition of superoxide anion radical generation at 200 ug/ml by spectrophotometry
Rattus norvegicus [8] = species: Rattus norvegicus; test: Increase in lipoprotein lipase activity in Triton fed hyperlipidemic Charles Foster rat plasma assessed as free fatty acids formation rate per ml of plasma relative to untreated Triton control; parameters: concentration or dose not given beside the values

Structure (SMILES) | inhibition [1] | Activity (Rattus norvegicus [2]) | Activity (Rattus norvegicus [3]) | Activity (Rattus norvegicus [4]) | Activity (Rattus norvegicus [5]) | inhibition [6] | inhibition [7] | Activity (Rattus norvegicus [8])
OC[C@@H](O)[C@@H](O)[C@H](O)[C@H](O)CO | 41% |  |  |  |  |  |  | 
CCOC(=O)COc1ccc(NC(=O)COc2ccc3ccccc3c2)cc1 |  | 15% | 11% | 14% | 14% |  |  | 
CCOC(=O)CCCOc1ccc(NC(=O)COc2ccccc2Cl)cc1 |  | 12% | 8% | 6% | 9% |  |  | 
CCOC(=O)CCCOc1ccc(NC(=O)COc2ccc3ccccc3c2)cc1 | 25% | 17% | 22% | 19% | 21% | 29% | 27% | 
CCOC(=O)C(CC)Oc1ccc(NC(=O)CSc2ccc3ccccc3c2)cc1 (stereo not drawn) |  | 7% | 5% | 4% | 6% |  |  | 
CCOC(=O)C(C)Oc1ccc(NC(=O)COc2ccc3ccccc3c2)cc1 (stereo not drawn) | 25% | 26% | 26% | 25% | 23% | 22% | 25% | 24%
CCOC(=O)C(C)(C)Oc1ccc(NC(=O)COc2ccc(Cl)cc2Cl)cc1 |  | 9% | 13% | 4% | 8% |  |  | 
CCOC(=O)C(C)Oc1ccc(NC(=O)COc2ccc(Cl)cc2Cl)cc1 (stereo not drawn) |  | 10% | 10% | 7% | 8% |  |  | 
CCOC(=O)CCCOc1ccc(NC(=O)COc2ccccc2C(C)CC)cc1 (stereo not drawn) |  | 13% | 11% | 10% | 9% |  |  | 
CCOC(=O)C(C)Oc1ccc(NC(=O)COc2ccccc2Cl)cc1 (stereo not drawn) | 26% | 23% | 25% | 26% | 25% | 26% | 33% | 21%
CCOC(=O)C(C)(C)Oc1ccc(NC(=O)COc2ccccc2C(C)CC)cc1 (stereo not drawn) |  | 14% | 6% | 10% | 7% |  |  | 
CCOC(=O)C(CC)Oc1ccc(NC(=O)COc2ccc3ccccc3c2)cc1 (stereo not drawn) |  | 12% | 13% | 9% | 12% |  |  | 
CCOC(=O)C(CC)Oc1ccc(NC(=O)COc2ccccc2C(C)CC)cc1 (stereo not drawn) |  | 5% | 9% | 9% | 10% |  |  | 
Cc1ccc(C)c(OCCCC(C)(C)C(=O)O)c1 [GEMFIBROZIL] |  | 31% | 33% | 33% | 31% |  |  | 30%
Cc1c(C)c2c(c(C)c1O)CC[C@@](C)(CCC[C@H](C)CCC[C@H](C)CCCC(C)C)O2 |  |  |  |  |  | 49% |  | 
CCOC(=O)COc1ccc(NC(=O)COc2ccccc2Cl)cc1 |  | 9% | 6% | 9% | 6% |  |  | 
CCOC(=O)C(C)Oc1ccc(NC(=O)COc2ccccc2C(C)CC)cc1 (stereo not drawn) | 25% | 15% | 24% | 23% | 24% | 25% | 25% | 16%
Oc1ncnc2[nH]ncc12 |  |  |  |  |  |  | 41% | 
CCOC(=O)C(C)(C)Oc1ccc(NC(=O)COc2ccc3ccccc3c2)cc1 | 22% | 23% | 27% | 24% | 25% | 22% | 30% | 22%
CCOC(=O)CCCOc1ccc(NC(=O)COc2ccc(Cl)cc2Cl)cc1 |  | 12% | 7% | 8% | 9% |  |  | 
CCOC(=O)C(CC)Oc1ccc(NC(=O)COc2ccc(Cl)cc2Cl)cc1 (stereo not drawn) |  | 4% | 5% | 3% | 2% |  |  | 
CCOC(=O)C(C)Oc1ccc(NC(=O)CSc2ccc3ccccc3c2)cc1 (stereo not drawn) | 28% | 24% | 28% | 24% | 26% | 35% | 31% | 26%
